Reference: patent US20100286150A1, “LEVOSIMENDAN FOR USE IN TREATING CHRONIC VALVULAR DISEASE” (priority 2008, published 2010)

Test system: dogs diagnosed with chronic valvular disease (CVD)
Experiment: Double-blind placebo-controlled study of long-term efficacy, safety and survival in dogs with chronic valvular disease
Format: in vivo
Conditions: for Owner-reported symptom score (mean ± SD): score 0 (best) to 18 (worst), 0.05 mg/kg orally twice a day
Description: A double-blind placebo-controlled study was conducted for evaluating the long-term efficacy and safety of levosimendan and its effect on long-term survival in dogs diagnosed with chronic valvular disease (CVD). Dogs were randomised to receive either 0.05 mg/kg of levosimendan (n=40) or placebo (n=40) orally twice a day for 5 months. All dogs were allowed to receive their background therapy (ACE-inhibitors, diuretics, beta-blockers and/or digoxin). Quality of life, symptoms of CVD, safety and mortality assessment were conducted throughout the study.
Improvement in quality of life was determined by using a composite owner-reported symptom score (ORSS). ORSS is a composite variable that was calculated by summing scores for appetite, intolerance to exercise, daytime cough, nocturnal cough, and nocturnal restlessness. The owner-reported symptom score could range from 0 (best possible) to 18 (worst possible).

[1] = 0.05 mg/kg orally twice a day for 5 months, added to standard therapy, vs placebo, FIG. 1

C[C@@H]1CC(=O)NN=C1c1ccc(NN=C(C#N)C#N)cc1 [levosimendan, (−)-enantiomer of [[4-(1,4,5,6-tetrahydro-4-methyl-6-oxo-3-pyridazinyl)phenyl]hydrazono]propanedinitrile]
safety (0.05 mg/kg orally twice a day for 5 months in dogs with CVD): No significant safety concerns
mortality [1]: significantly reduced mortality
survival [1]: prolonged survival
quality of life over time compared to baseline assessments (0 months) (owner-reported symptom score, 0.05 mg/kg orally twice a day for 5 months): significantly improved
Owner-reported symptom score (mean ± SD) (time 0 months (baseline)): 5.6 ± 2.4
Owner-reported symptom score (mean ± SD) (time 1 month): 4.1 ± 3.2
Owner-reported symptom score (mean ± SD) (time 3 months): 4.4 ± 4.1
Owner-reported symptom score (mean ± SD) (time 5 months): 4.4 ± 3.4
